Substitutions are numbered along the chain they refer to. Where two headings read alike, the source gives them in different places.

The source of these data is patent US20220127335A1, “TETRAMERIC PROTEIN SCAFFOLDS AS NANO-CARRIERS OF THERAPEUTIC PEPTIDES FOR TREATING CANCER AND OTHER DISEASES” (UNIVERSITY OF MARYLAND, BALTIMORE, priority 2019, published 2022).

The subject of data set [1] is p53, p21, PUMA, NOXA in HCT116 p53^+/+ cells. Nature of the data set: Western blotting of p53, p21, PUMA, NOXA. Conditions: 12.5 μM, 48 h. The format is cell-based. The procedure: The primary antibodies were from Santa Cruz Biotechnology (p53), Calbiochem (p21, PUMA and NOXA) and Sigma-Aldrich (β-actin), and secondary antibodies conjugated with horseradish peroxidase from Calbiochem.
T-test was performed for statistical analysis, * standing for p<0.05, *** for p<0.001. The data are the means±SD of three independent Western blotting assays.
(A western blot detects proteins with antibodies after separation by electrophoresis.)

The conditions of data set [2]: end of three-week treatment.
Data set [3] can be described thus: Complete blood cell analysis after 21-day treatment. Conditions: end of three-week treatment.
Description: (§1) Statistical analysis was performed using T-test, NS standing for no significant difference.
The subject of data set [4] is HCT116 p53^+/+ xenograft tumors. Nature of the data set: Histopathology of xenograft tumors (H&E and TUNEL staining). The data set is classed as in vivo, BALB/c nude mice. To be noted: tumors after three-week treatment, 5 mg/Kg.
Excerpt: Representative tumors from each treatment group were fixed with formaldehyde, dehydrated and sliced into 5 μm-thick sections, and subjected to H&E staining according to standard protocols (scale bar: 50 μm).
FIG. 7F is the terminal deoxynucleotidyl transferase dUTP nick end labeling (TUNEL) assay to stain fragmented DNA in apoptotic cells (scale bar: 50 μm).
The subject of data set [5] is HCT116 p53^+/+ cells. The data set can be described thus: Cell viability (CCK-8), HCT116 p53^+/+. The data set is classed as cell-based. Conditions: 48 h after treatment, 1.56 μM to 50 μM.
Description: (§2) Following a 2-h incubation with CCK-8 reagents, absorbance values at 450 nm were measured on a microplate reader, and percent cell viability was calculated as (Atreatment−Ablank)/(Acontrol−Ablank)×100%. The data are the means of three independent assays.
Three independent assays were performed.
Data set [6] deals with HCT 116 p53^+/+ cells. The data set can be described thus: Cellular uptake by flow cytometry and confocal microscopy. The data set is classed as cell-based. The procedure:
HCT 116 p53^+/+ cells were seeded in a 12-well plate at a density of 30,000 cells/well, cultured for 24 h, and treated with peptide or protein at 10 μM for 4 h before flow cytometric analysis.
Hoechst 33342 blue dye was used for nuclei staining.
Peptide/protein internalization and cytosolic release were also examined using both confocal microscopy and flow cytometry.
Cationic cell penetrating peptides as a carrier are known to promote cellular uptake of cargos primarily through the […], which is inhibited by heparin but not by amiloride. To better understand the mechanism of cellular uptake of ^PMIBcr/Abl-R6, confocal microscopic analysis was performed on cells treated with heparin or amiloride.
(In general: Flow cytometry measures light scatter and fluorescence of single cells or particles in a stream.)

Data set [7] has as its system HCT116 p53^+/+ xenograft tumors. The data set can be described thus: Tumor growth inhibition in nude mouse xenograft model. The data set is classed as in vivo, BALB/c nude mice. Conditions: 5 mg/Kg subcutaneous every other day, 3 weeks.
The conditions of data set [8]: mouse, in vivo.
Description: as §1
Data set [9] concerns the molecule itself. The data set can be described thus: self-association into tetramer; SEC, DLS, fluorescence polarization, SAXS. In general terms: Polarisation of emitted light reports the rotation of a fluorescent probe.
The target of data set [10] is T1, MDM2 (p53-binding domain) (UniProt Q00987 25-109, limits assumed).
T1 construct: The ITC legends say only 'MDM2'
T1 sequence (Q00987 25-109 limits assumed): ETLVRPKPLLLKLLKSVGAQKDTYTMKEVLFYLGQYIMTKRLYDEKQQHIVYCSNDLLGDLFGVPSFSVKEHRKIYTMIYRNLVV
The data set can be described thus: ITC, MicroCal ITC 200, 25° C., 20 mM Tris/HCl pH 7.4.

Data set [11] concerns HCT116 p53^+/+ cells. Nature of the data set: Apoptosis by flow cytometry (annexin V / propidium iodide). To be noted: 12.5 μM, 48 h. The data set is classed as cell-based. How it is done:
Apoptosis was detected using a standard apoptotic kit from Biolegend, including APC labeled anti-annexin V antibody and a propidium iodide solution.
Three independent FACS assays were performed, and data are shown as the means±SD (n=3). p values were calculated by t-test (***, p<0.001).

Data set [12] concerns HCT116 p53^−/− cells. The data set can be described thus: Cell viability (CCK-8), HCT116 p53^−/−. To be noted: 48 h after treatment.
Description: as §2

With `COc1ccc(C2=N[C@@H](c3ccc(Cl)cc3)[C@@H](c3ccc(Cl)cc3)N2C(=O)N2CCNC(=O)C2)c(OC(C)C)c1` [Nutlin-3, reference compound], in data set [1], the “expression of p21, PUMA and NOXA (Western blotting)” value is “upregulation”; the “p53 level (Western blotting)” value was “significantly stabilized p53”. Further, the “toxicity to liver and kidney tissues (H&E)” value (“toxicity” below) in [2] is given as “no overt toxicity”. The “blood cell counts (WBC, LYM, MID, GRN, RBC, PLT) versus mock-treated control” value in [3] was “no statistically significant difference”.

Regarding “^PMIBcr/Abl-R6: Bcr/Abl tetramerization domain with PMI grafted in place of residues 5-16, C-terminally extended by Arg-repeating hexapeptide (R6); 78 residues, tetramer”, the “necrotic and apoptotic tumor cells (H&E and TUNEL)” value (“necrotic and apoptotic tumor cells” below) in [4] was “massive necrotic and apoptotic tumor cells”. In data set [1], the “expression of p21, PUMA and NOXA (Western blotting)” value was “upregulation”; the “p53 level (Western blotting)” value was “significantly stabilized p53”. The “cell viability / growth inhibition” value in data set [5] is “dose-dependent growth inhibition”. Besides, in data set [6] (BDP TR-labeled, 10 μM, 4 h), the “cellular uptake (flow cytometry)” value is recorded as “much more efficiently” and the “cytosolic distribution (confocal microscopy)” value is “cytosolic distribution”. For the same molecule, the “effect of amiloride on internalization” value in data set [6] (amiloride 3 mM, 12 h before addition) is given as “little effect”. The “effect of heparin on internalization” value in [6] (heparin sodium 5 mM, 12 h before addition) is “almost completely blocked it”. The “effect on tumor growth” value in data set [7] is “significantly inhibited it”.

B1: ^PMIBcr/Abl: Bcr/Abl tetramerization domain with PMI grafted in place of residues 5-16, without R6; negative control (protein)
chain: MVDPTSFAEYWALLSPDSEPPRMELRSVGDIEQELERAKASIRRLEQEVNQERFRMIYLQTLLAKEKKSYDR
On to B1, for which, in data set [4], the “necrotic and apoptotic tumor cells” value is “partial activity”. Also, the “toxicity” value in [2] is “no overt toxicity”. Also, in data set [8], the “blood cell counts (WBC, LYM, MID, GRN, RBC, PLT) versus mock-treated control” value was “no statistically significant difference”. Further, the “effect on tumor growth” value in data set [7] is listed as “marginally active”.

B2: ^PMIBcr/Abl-R6 (designed binder)
chain: MVDPTSFAEYWALLSPDSEPPRMELRSVGDIEQELERAKASIRRLEQEVNQERFRMIYLQTLLAKEKKSYDRRRRRRR
notes: Bcr/Abl tetramerization domain with PMI grafted in place of residues 5-16 and a C-terminal Arg hexapeptide (R6); 78 residues, chemically synthesized by native chemical ligation; Exists as a tetramer in aqueous buffer
B2: in data set [9], the binding result was “binds”.

B3: Bcr/Abl-R6 (other)
chain: B2 chain with T5V, S6G, Y10A, A12K, L13A, L14Q, S15F
notes: Negative control scaffold without the PMI graft: Bcr/Abl tetramerization domain with C-terminal R6; Chemically synthesized; tetramer in aqueous buffer
For B3, the “necrotic and apoptotic tumor cells” value in [4] was “lack of activity”. Moreover, in data set [10], the binding result was “no binding”. The “toxicity” value in data set [2] is “no overt toxicity”. In addition, in data set [8], the “blood cell counts (WBC, LYM, MID, GRN, RBC, PLT) versus mock-treated control” value is reported as “no statistically significant difference”. Besides, the “cell viability / growth inhibition” value in data set [5] is reported as “neither PMI nor Bcr/Abl-R6 had any effect on the viability”. The “apoptosis (FACS)” value in data set [11] is reported as “largely unaffected”. Moreover, in [7], the “effect on tumor growth” value is “no effect on tumor growth”. In addition, in data set [12], the cell viability result is “neither PMI nor Bcr/Abl-R6 had any effect on the viability”.
